Like-named read-outs stand apart in the source and are kept apart here.

This is an account of results in PMC7375689 (Leukemia & lymphoma, 2020).

The conditions of series [1]: single agent panobinostat; cited from earlier work.
The test system of a further series is cancer cells. Particulars: cited from earlier work.
Series [2] in a line: Toxicity and dose limiting toxicity. The class given is in vivo, human. Particulars: for dose limiting toxicities (DLTs): cycle 1.
In series [3] the test system is miR-29b.
A further series concerns AML cell lines. As to conditions: cited from earlier work.
Series [4] deals with miR-29b. As to conditions: cited from earlier work.
Series [5] in a line: Plasma pharmacokinetics of AR-42 in AML patients. It is filed as in vivo, human. As to conditions: for Tmax: median (SD).
The next series relates to AML. In words: Clinical response. It is filed as in vivo, human. Particulars: of 13 patients enrolled, AR-42 followed by decitabine; responses all in DL3.
For series [6] the following is noted: single agent vorinostat; cited from earlier work.
For series [7] the following is noted: patients with relapsed multiple myeloma; cited from earlier work.
The mark [8] stands for this setting: AR-42 followed by decitabine, all dose levels, 13 AML patients.
[9] abbreviates: 20 mg (day 1, 3, 5), Day 1, cycle 1, plasma, geometric mean (SD).
Setting [10] is: 20 mg (day 1, 3, 5), Day 5, cycle 1, plasma, geometric mean (SD).
Where [11] appears, read: 40 mg (day 1, 3, 4, 5), Day 1, cycle 1, plasma, geometric mean (SD).
[12] abbreviates: 40 mg (day 1, 3, 4, 5), Day 5, cycle 1, plasma, geometric mean (SD).
Setting [13] is: 40 mg (day 1, 3, 5), Day 1, cycle 1, plasma, geometric mean (SD).
Setting [14] is: 40 mg (day 1, 3, 5), Day 5, cycle 1, plasma, geometric mean (SD).

For the compound `Cc1[nH]c2ccccc2c1CCNCc1ccc(/C=C/C(=O)NO)cc1` [panobinostat], the “patients who experienced fatigue” value in [1] is listed as 47.4%.

In general, Cmax refers to the highest concentration seen after dosing. Take AR-42: the IC50 result in the series on cancer cells was “submicromolar”. Besides, in series [2] (AR-42 followed by decitabine, 13 AML patients), the “patients with worsening hypertension” value was 4. Besides, in series [2] (setting [8]), the “Number of Patients with grade ≥ 3 in cycles 1 and 2: Alanine aminotransferase increased” value is on record as 1; the “Number of Patients with grade ≥ 3 in cycles 1 and 2: Alkalosis” value was determined as 1; the “Number of Patients with grade ≥ 3 in cycles 1 and 2: Aspartate aminotransferase increased” value worked out at 2; the “Number of Patients with grade ≥ 3 in cycles 1 and 2: Blood bilirubin increased” value is reported as 1. Besides, in [2] (setting [8]), the “Number of Patients with grade ≥ 3 in cycles 1 and 2: Cardiac troponin increased” value came out at 1; the “Number of Patients with grade ≥ 3 in cycles 1 and 2: Catheter-related infection” value amounted to 2; the “Number of Patients with grade ≥ 3 in cycles 1 and 2: Fall” value is listed as 1; the “Number of Patients with grade ≥ 3 in cycles 1 and 2: Febrile neutropenia” value worked out at 9. In [2] (setting [8]), the “Number of Patients with grade ≥ 3 in cycles 1 and 2: Heart failure” value is 1; the “Number of Patients with grade ≥ 3 in cycles 1 and 2: Hyperglycemia” value is given as 3; the “Number of Patients with grade ≥ 3 in cycles 1 and 2: Hypertension” value is listed as 4; the “Number of Patients with grade ≥ 3 in cycles 1 and 2: Hyperuricemia” value turned out to be 1. Further, in series [2] (setting [8]), the “Number of Patients with grade ≥ 3 in cycles 1 and 2: Hypoalbuminemia” value came to 1; the “Number of Patients with grade ≥ 3 in cycles 1 and 2: Hypokalemia” value stood at 3; the “Number of Patients with grade ≥ 3 in cycles 1 and 2: Hyponatremia” value is listed as 5; the “Number of Patients with grade ≥ 3 in cycles 1 and 2: Hypophosphatemia” value is given as 2. In [2] (setting [8]), the “Number of Patients with grade ≥ 3 in cycles 1 and 2: Hypotension” value is on record as 2; the “Number of Patients with grade ≥ 3 in cycles 1 and 2: Hypoxia” value is recorded as 6; the “Number of Patients with grade ≥ 3 in cycles 1 and 2: Lung infection” value turned out to be 5; the “Number of Patients with grade ≥ 3 in cycles 1 and 2: Rash maculo-papular” value stood at 1. Moreover, in series [2] (setting [8]), the “Number of Patients with grade ≥ 3 in cycles 1 and 2: Respiratory failure” value is given as 1; the “Number of Patients with grade ≥ 3 in cycles 1 and 2: Sepsis” value is reported as 3; the “Number of Patients with grade ≥ 3 in cycles 1 and 2: Sinus tachycardia” value is reported as 1; the “Number of Patients with grade ≥ 3 in cycles 1 and 2: Syncope” value was 1. The “dose limiting toxicities (DLTs)” value in series [2] (DL1: AR-42 20 mg daily days 1, 3, 5, then decitabine, 3 patients) was “no DLTs”. For the same compound, in series [2] (DL2: AR-42 40 mg daily days 1, 3, 5, then decitabine, 3 patients), the “dose limiting toxicities (DLTs)” value is given as “no DLTs”. Further, the “dose limiting toxicities (DLTs)” value in series [2] (DL3: AR-42 40 mg daily days 1, 3, 4, 5, then decitabine) was “One DLT of polymicrobial sepsis and multi-organ failure”. The “patients who also experienced a grade 3 or 4 infection” value in series [2] (of the six patients with neutropenia in cycle 1) was 4. In addition, the cardiac toxicities result in series [2] (patients treated with AR-42) is on record as “minimal cardiac toxicities”. The “increase of at least 100% in miR-29b expression” value in the series on miR-29b [3] (DL1: AR-42 20 mg days 1, 3, 5, day 5 of cycle 1 over baseline) is on record as “not observed”. Also, the “increase in miR-29b expression of at least 100%” value with miR-29b [3] (DL2: AR-42 40 mg days 1, 3, 5, day 5 of cycle 1 over baseline) is recorded as “not observed”. Moreover, the “increase in miR-29b expression” value in the series on miR-29b [3] (DL3: AR-42 40 mg days 1, 3, 4, 5, day 5 of cycle 1 over baseline) was “not observed”. Moreover, the “doubling in either the mature or primary miR at day 5 prior to decitabine administration” value in the series with miR-29b [3] (all dose levels, current schedule) is recorded as “did not observe a doubling”. The “correlation between miR-29b ΔΔCT values and Cmax” value with miR-29b [3] (human, in vivo) is recorded as “weak correlation”. In the series with AML cell lines (AML cell lines), the apoptosis entry is on record as “dose dependent apoptosis”; the “effect on cell cycle” value was “cell cycle arrest at both S and G2/M phases”. The anti-leukemic activity entry with AML cell lines (sequential administration of AR-42 followed by decitabine, compared to either drug alone) is “stronger anti-leukemic activity”. Further, in the series on miR-29b [4] (AML cells, 1 μM AR-42, after 24 h), the miR-29b expression entry was “miR-29b induction”. Further, the miR-29b expression entry in the series on miR-29b [4] (Kasumi-1 AML cells, in vitro) is given as “upregulated”. Further, the miR-29b transcription entry with miR-29b [4] (in vitro) is on record as “increase”. Further, in series [5] (setting [9]), the “AUC0–4” value is on record as 1.59 (2.13) μM h, the “AUC0–∞” value is on record as 1.77 (2.34) μM h, the “Cl/F (apparent oral clearance)” value is listed as 36.11 (114.88) L/h and the T1/2 was 7.36 (0.42) h. Also, in series [5] (setting [9]), the “Vz/F (apparent volume of distribution)” value is on record as 381.33 (1238.57) L. For the same compound, the Tmax in [5] (20 mg (day 1, 3, 5), Day 1, cycle 1, plasma) was 2.00 (1.32) h. Also, in series [5] (setting [10]), the “AUC0–4” value is recorded as 4.19 (0.54) μM h, the “AUC0–∞” value is 4.63 (0.71) μM h, the “Cl/F (apparent oral clearance)” value is recorded as 13.84 (2.18) L/h and the highest level (Cmax) was 350 nM. Also, in series [5] (setting [10]), the T1/2 is reported as 6.91 (1.11) h and the “Vz/F (apparent volume of distribution)” value is reported as 137.94 (14.39) L. The Tmax in series [5] (20 mg (day 1, 3, 5), Day 5, cycle 1, plasma) was 2.00 (1.32) h. Moreover, in series [5] (setting [11]), the “AUC0–4” value is reported as 11.33 (3.54) μM h, the “AUC0–∞” value is reported as 12.22 (4.24) μM h, the “Cl/F (apparent oral clearance)” value is reported as 10.48 (2.98) L/h and the Cmax was 1010 nM. In [5] (setting [11]), the T1/2 is 7.63 (1.14) h and the “Vz/F (apparent volume of distribution)” value is on record as 120.53 (35.87) L. For the same compound, the Tmax in series [5] (40 mg (day 1, 3, 4, 5), Day 1, cycle 1, plasma) was 2.00 (2.36) h. In addition, in [5] (setting [12]), the “AUC0–4” value is recorded as 11.13 (3.36) μM h, the “AUC0–∞” value was 14.42 (7.91) μM h, the “Cl/F (apparent oral clearance)” value is 8.88 (3.23) L/h and the Cmax stood at 960 nM. In [5] (setting [12]), the T1/2 was 9.98 (6.79) h and the “Vz/F (apparent volume of distribution)” value was 127.81 (54.36) L. In addition, in series [5] (40 mg (day 1, 3, 4, 5), Day 5, cycle 1, plasma), the Tmax was 4.00 (2.60) h. Moreover, in [5] (setting [13]), the “AUC0–4” value is 7.20 (1.06) μM h, the “AUC0–∞” value is on record as 7.90 (1.10) μM h, the “Cl/F (apparent oral clearance)” value is listed as 16.22 (2.15) L/h and the Cmax stood at 710 nM. Also, in series [5] (setting [13]), the T1/2 was 6.63 (0.29) h and the “Vz/F (apparent volume of distribution)” value is reported as 155.67 (27.03) L. Also, the Tmax in series [5] (40 mg (day 1, 3, 5), Day 1, cycle 1, plasma) is 2.00 (1.15) h. In addition, in series [5] (setting [14]), the “AUC0–4” value is 6.94 (0.64) μM h, the “AUC0–∞” value is 7.71 (1.10) μM h, the “Cl/F (apparent oral clearance)” value is listed as 16.61 (2.22) L/h and the Cmax was determined as 860 nM. Also, in series [5] (setting [14]), the T1/2 is recorded as 6.93 (1.26) h and the “Vz/F (apparent volume of distribution)” value is 166.11 (9.73) L. For the same compound, the Tmax in series [5] (40 mg (day 1, 3, 5), Day 5, cycle 1, plasma) was 1.50 (0.29) h. The peak concentration (Cmax) in [5] (read-out: Cmax values, DL1, days 1 and 5) lay in the range of 150 to 350 nM. Besides, in series [5] (read-out: Cmax values, DL2, days 1 and 5), the peak concentration (Cmax) fell in the range of 710 to 860 nM. In addition, in [5] (read-out: Cmax values, DL3, days 1 and 5), the Cmax was in the range of 960 to 1010 nM. Moreover, the “number of patients who achieved a CRi” value with AML was 2.

As for `O=C(CCCCCCC(=O)Nc1ccccc1)NO` [vorinostat], in [6], the “patients who experienced fatigue” value is on record as 52%.

For `Cn1cc(CNCC2CCN(c3ncc(C(=O)NO)cn3)CC2)c2ccccc21` [quisinostat], the cardiac events entry in [7] was “grade 3 and 4 cardiac events”.
